{
  "source": "patent US20190008798A1",
  "about": "“Coenzyme Q10 in the preventive treatment of type 2 diabetes” (Pharma Nord ApS, priority 2017, published 2019)",
  "origin": "cited, not measured here",
  "key": {"adipose tissue": {"system": "adipose tissue", "conditions": "mice"}},
  "data": [
    {"smiles": "COC1=C(OC)C(=O)C(C/C=C(\\C)CC/C=C(\\C)CC/C=C(\\C)CC/C=C(\\C)CC/C=C(\\C)CC/C=C(\\C)CC/C=C(\\C)CC/C=C(\\C)CC/C=C(\\C)CCC=C(C)C)=C(C)C1=O", "note": "[Q10, ubidecarenone]", "values": [
      {"measurement": "insulin sensitivity in the adipose tissue", "setting": "adipose tissue", "value": "improves insulin sensitivity"},
      {"measurement": "mortality in subjects with cardiac failure", "value": "decrease mortality"}
    ]}
  ]
}
